# Molecular target: T1, human GPR68 (Homo sapiens, UniProt Q15743)
# T1 construct: encoding full-length human GPR68 (uniprot ID: Q15743); expressed in transfected cells; host or cells: HEK293T
# Assay: GPR68 Biochemical Assay (Promega GloSensor cAMP assay, GPR68 antagonism)
# Type: cell-based
# Conditions: HEK293T cells transiently expressing hGPR68, antagonism of pH 5.5 stimulated cAMP, 15 min, read-out: hGPR68 IC50
# Experimental: GPR68 antagonism was determined using the Promega GloSensor™ CAMP assay (F. I. Wang et al., Methods 2021, S1046-2023 (21) 00249-8). HEK293T cells (obtained from ECACC, Cat 12022001, Lot no. 17E044) were cultured in T175 flasks (Greiner, Cat 660175) in DMEM (Gibco, Cat 11995-065) supplemented with 10% Fetal Bovine Serum (Gibco Cat 16000-044), and 100 u/mL Pen-Strep (Gibco, Cat 15140) at 37° C. and 5% CO2. GPR68 expression was achieved by transient transfection with a mammalian expression plasmid encoding full-length human GPR68 (uniprot ID: Q15743) under control of a CMV promoter. The day before transfection, cell media was aspirated and HEK293T cells were incubated with accutase (Sigma, Cat A6964) for 3-4 minutes 37° C. and 5% CO2 before being manually detached with excess DMEM and trituration. Cell density was determined by automated cell counting (Countess, Invitrogen) and adjusted to 6×10^6 cells/20 mL and transferred to 15 cm dishes (Thermo Fisher, Cat 130183) for overnight incubation at 37° C. and 5% CO2. The next day separate mammalian expression plasmids encoding hGPR68 (4 μg) and Promega GloSensor (8 μg) were diluted to 1 mL in Opti-MEM (Thermo Fisher Scientific, Cat 31985070) and incubated with 30 μL of lipofectamine 3000 (also diluted to 1 mL in Opti-MEM) for 15 minutes at room temperature and subsequently added dropwise to the plated cells. Post transfection cells were then incubated at 37° C. and 5% CO2 for at least 16 hours before transfer to assay plates the following day. Transfer was conducted by washing cells with PBS and incubating with accutase for 3-4 minutes 37° C. and 5% CO2 before being manually detached with excess DMEM and mild trituration. The suspension was then centrifuged at 192 RCF for 4 minutes in a 50 mL centrifuge tube (Greiner, Cat 227261).
# Supernatant was removed by aspiration and the cell pellet was resuspended in DMEM+1% dialysed FBS (Gibco, Cat 26400-044) and 100 u/mL Pen-Strep to a cell density of 500 cells/μL. Cells were plated into poly-L-Lysine coated 384-well white assay plates (Corning, Cat 3570) at a final volume of 40 µL and a density of 20,000 cells/well before overnight incubation at 37° C. and 5% CO2. The following day media was manually ejected from the 384-well assay plate and replaced with 10 μL GloSensor substrate (Promega, Cat E1291) prepared in pH 8.0 assay buffer (1×HBSS, 10 mM HEPES, 10 mM MOPS). Cells were incubated with this solution for 60 minutes at room temperature in the dark. Test compounds or an equivalent volume of DMSO (vehicle) were added to compounds plates to create a 9-point, half-log concentration series for each compound with a maximum final assay concentration of 50 μM and a consistent final DMSO concentration of 0.5%. Assay buffer with 0.1% BSA and 0.01% ascorbic acid was prepared at three pHs: pH 8.0, pH 5.5 and pH 4.5. pH 8.0 and 4.5 were added to the compound plate as maximum and minimum effect controls whilst pH 5.5 was added to all compound wells to stimulate GPR68 to a level corresponding to […] of maximal stimulation after addition to the cells already in pH 8.0 (assay acceptance criteria range 70-90%). DMSO/Compound and buffer was added to the plated cells containing the GloSensor substrate and incubated for 15 minutes at room temperature before being read on a microplate reader (BMG PHERAstar, optic module LUM Plus with Gain 3600). Data was exported and analysed in excel and Graphpad prism (version 9). Assay QC acceptance criteria required the maximum and minimum controls to return a Z′≥0.5, the EC80 to be 80%±10% of expected and the reference ligand pIC50 to be within one-half-log unit of its historical IC50. Percent inhibition was calculated using the mean EC80 (pH 5.5) and mean minimum effect control (pH 8.0). Data were plotted as percentage inhibition, average±SEM. IC50, Emax, Emin, Actual max, actual min, R^2 and fit confidence were calculated using Graphpad Prism's sigmoidal dose-response function.
# T1 sequence (Q15743 whole entry): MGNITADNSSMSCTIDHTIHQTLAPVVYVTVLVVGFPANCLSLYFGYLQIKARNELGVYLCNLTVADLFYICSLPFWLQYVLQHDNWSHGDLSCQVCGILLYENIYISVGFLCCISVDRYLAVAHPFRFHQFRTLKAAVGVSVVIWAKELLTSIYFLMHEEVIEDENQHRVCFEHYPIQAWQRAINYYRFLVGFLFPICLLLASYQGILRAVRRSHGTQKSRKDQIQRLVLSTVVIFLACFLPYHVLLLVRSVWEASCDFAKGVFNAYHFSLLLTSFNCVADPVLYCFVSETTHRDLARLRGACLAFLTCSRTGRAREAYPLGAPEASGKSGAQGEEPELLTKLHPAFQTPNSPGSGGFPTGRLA
row,SMILES,IC50 [nM]
1,"NC(=O)c1c(-c2cccnn2)nn2c(C(=O)NC3Cc4ccccc4C3)ccnc12 [Compound 22, N7-indan-2-yl-2-pyridazin-3-yl-pyrazolo[1,5-a]pyrimidine-3,7-dicarboxamide]",500 to 5000
2,"NC(=O)c1c(C2CC2)nn2c(C(=O)NC3CC(F)(F)c4ccccc43)ccnc12 (stereo not drawn) [Compound 112, 2-cyclopropyl-N7-(3,3-difluoroindan-1-yl)pyrazolo[1,5-a]pyrimidine-3,7-dicarboxamide]",< 50
3,"NC(=O)c1cnn2c(C(=O)NC3Cc4cccc(-c5ccccn5)c4C3)ccnc12 (stereo not drawn) [Compound 17, N7-[4-(2-pyridyl)indan-2-yl]pyrazolo[1,5-a]pyrimidine-3,7-dicarboxamide]",50000 to 100000
4,"COCc1nn2c(C(=O)NCc3ccc(F)cc3F)ccnc2c1C(N)=O [Compound 83, N7-[(2,4-difluorophenyl)methyl]-2-(methoxymethyl)pyrazolo[1,5-a]pyrimidine-3,7-dicarboxamide]",< 50
5,"CC(COc1ccc(C(C)(C)C)cc1)NC(=O)c1ccnc2c(C(N)=O)cnn12 (stereo not drawn) [Compound 99, N7-[1-(4-tert-butylphenoxy)propan-2-yl]pyrazolo[1,5-a]pyrimidine-3,7-dicarboxamide]",5000 to 50000
6,"NC(=O)c1c(C2CC2)nn2c(C(=O)NC3CCS(=O)(=O)c4ccccc43)ccnc12 (stereo not drawn) [Compound 229, 2-cyclopropyl-N7-(1,1-dioxo-3,4-dihydro-2H-thiochromen-4-yl)pyrazolo[1,5-a]pyrimidine-3,7-dicarboxamide]",< 50
7,"COCc1nn2c(C(=O)NC3CCC(F)(F)CC3F)ccnc2c1C(N)=O (mixture of isomers) [Compound 154, 2-(methoxymethyl)-N7-(2,4,4-trifluorocyclohexyl)pyrazolo[1,5-a]pyrimidine-3,7-dicarboxamide]",50 to 500
8,"NC(=O)c1c(C2CC2)nc2c(C(=O)NC3CS(=O)(=O)c4ccccc43)ccnn12 (stereo not drawn) [Compound 222, 2-cyclopropyl-N8-(1,1-dioxo-2,3-dihydrobenzothiophen-3-yl) imidazo[1,2-b]pyridazine-3,8-dicarboxamide]",< 50
9,"NC(=O)c1c(COCF)nn2c(C(=O)N[C@H]3C[C@@H](OC(F)(F)F)C3)ccnc12 [Compound 158, 2-(fluoromethoxymethyl)-N7-[cis-3-(trifluoromethoxy)cyclobutyl]pyrazolo[1,5-a]pyrimidine-3,7-dicarboxamide]",< 50
10,"COCc1nn2c(C(=O)NCC3CC3)ccnc2c1C(N)=O [Compound 81, N7-(cyclopropylmethyl)-2-(methoxymethyl)pyrazolo[1,5-a]pyrimidine-3,7-dicarboxamide]",50 to 500
11,"COCc1nn2c(C(=O)Nc3ccc(CN(C)C)cc3)ccnc2c1C(N)=O [Compound 62, N7-[4-[(dimethylamino)methyl]phenyl]-2-(methoxymethyl)pyrazolo[1,5-a]pyrimidine-3,7-dicarboxamide]",500 to 5000
12,"COCc1nn2c(C(=O)NC3CCC(F)(F)c4ccccc43)cc(C)nc2c1C(N)=O (stereo not drawn) [Compound 226, N7-(4,4-difluorotetralin-1-yl)-2-(methoxymethyl)-5-methyl-pyrazolo[1,5-a]pyrimidine-3,7-dicarboxamide]",< 50

# Other lines, results leading:
row,IC50 [nM],SMILES
1,< 50,"COCc1nn2c(C(=O)NC3Cc4cccnc4C3)ccnc2c1C(N)=O (stereo not drawn) [Compound 60, N7-(6,7-dihydro-5H-cyclopenta[b]pyridin-6-yl)-2-(methoxymethyl)pyrazolo[1,5-a]pyrimidine-3,7-dicarboxamide]"
2,50 to 500,"COCc1nn2c(C(=O)NC3(C)CCc4ccccc43)ccnc2c1C(N)=O (stereo not drawn) [Compound 155, 2-(methoxymethyl)-N7-(1-methylindan-1-yl)pyrazolo[1,5-a]pyrimidine-3,7-dicarboxamide]"
3,< 50,"COCc1nn2c(C(=O)N[C@@H]3COc4cc(F)ccc43)ccnc2c1C(N)=O [Compound 167, N7-[(3S)-6-fluoro-2,3-dihydrobenzofuran-3-yl]-2-(methoxymethyl)pyrazolo[1,5-a]pyrimidine-3,7-dicarboxamide]"
4,50 to 500,"COCc1nn2c(C(=O)NCc3ccccc3)ccnc2c1C(N)=O [Compound 69, N7-benzyl-2-(methoxymethyl)pyrazolo[1,5-a]pyrimidine-3,7-dicarboxamide]"
5,< 50,"[2H]C([2H])([2H])OCc1nn2c(C(=O)NC3Cc4cccnc4C3)ccnc2c1C(N)=O (stereo not drawn) [Compound 160, N7-(6,7-dihydro-5H-cyclopenta[b]pyridin-6-yl)-2-(trideuteriomethoxymethyl)pyrazolo[1,5-a]pyrimidine-3,7-dicarboxamide]"
6,50 to 500,"COCc1nn2c(C(=O)NCc3ccccc3OC)ccnc2c1C(N)=O [Compound 199, 2-(methoxymethyl)-N7-[(2-methoxyphenyl)methyl]pyrazolo[1,5-a]pyrimidine-3,7-dicarboxamide]"
7,< 50,"COCc1nn2c(C(=O)NC3CCC(F)(F)c4ccccc43)ccnc2c1C(N)=O (single isomer, unassigned) [Compound 175, N7-[-4,4-difluorotetralin-1-yl]-2-(methoxymethyl)pyrazolo[1,5-a]pyrimidine-3,7-dicarboxamide]"
8,50 to 500,"COCc1nn2c(C(=O)N[C@H]3CCOc4ccccc43)ccnc2c1C(N)=O [Compound 172, N7-[(4S)-chroman-4-yl]-2-(methoxymethyl)pyrazolo[1,5-a]pyrimidine-3,7-dicarboxamide]"
9,< 50,"COCc1nn2c(C(=O)NC3CCS(=O)(=O)c4ccccc43)ccnc2c1C(N)=O (stereo not drawn) [Compound 189, N7-(1,1-dioxo-3,4-dihydro-2H-thiochromen-4-yl)-2-(methoxymethyl)pyrazolo[1,5-a]pyrimidine-3,7-dicarboxamide]"
10,< 50,"COCc1nn2c(C(=O)N[C@H]3CCS(=O)(=O)c4ccccc43)ccnc2c1C(N)=O (single isomer, unassigned) [Compound 234]"
11,50 to 500,"COCc1nn2c(C(=O)N[C@H]3CC(C)(C)c4ccccc43)ccnc2c1C(N)=O [Compound 198, 2-(methoxymethyl)-N7-[(1S)-3,3-dimethylindan-1-yl]pyrazolo[1,5-a]pyrimidine-3,7-dicarboxamide]"
12,< 50,"COCc1nn2c(C(=O)N[C@@H]3Cc4ccccc4[C@@H]3O)ccnc2c1C(N)=O (relative stereo) [Compound 200, N7-(cis-1-hydroxyindan-2-yl)-2-(methoxymethyl)pyrazolo[1,5-a]pyrimidine-3,7-dicarboxamide]"
13,50 to 500,"COCc1nn2c(C(=O)NC3CCOc4ncccc43)ccnc2c1C(N)=O (stereo not drawn) [Compound 171, N7-(3,4-dihydro-2H-pyrano[2,3-b]pyridin-4-yl)-2-(methoxymethyl)pyrazolo[1,5-a]pyrimidine-3,7-dicarboxamide]"

# Same assay, conditions: hGPR68 IC50, HEK293T cells transiently expressing hGPR68, antagonism of pH 5.5 stimulated cAMP, 15 min
row,SMILES,IC50 [nM]
1,"COc1cc(C(=O)NC2CC(F)(F)C2)n2nc(C)c(C(N)=O)c2n1 [Compound 41, N7-(3,3-difluorocyclobutyl)-5-methoxy-2-methyl-pyrazolo[1,5-a]pyrimidine-3,7-dicarboxamide]",500 to 5000
2,"NC(=O)c1c(C2CCOC2)nn2c(C(=O)NC3Cc4ccccc4C3)ccnc12 (stereo not drawn) [Compound 37, N7-indan-2-yl-2-tetrahydrofuran-3-yl-pyrazolo[1,5-a]pyrimidine-3,7-dicarboxamide]",< 50
